Legend:
Type in all cases: in vivo
[1] = tested on: UMNs in the motor cortex of prpTDP‐43^A315T‐UeGFP mice; assay: UMN quantification in motor cortex, prpTDP‐43^A315T‐UeGFP mice
Method: (§1) hSOD1^G93A‐UeGFP, prpTDP‐43^A315T‐UeGFP and WT‐UeGFP mice were weighed and the required NU‐9 dose per weight was calculated (20 or 100 mg/kg), which was administered once daily by oral gavage, starting at postnatal day (P)60 and continuing until P120. Animals from the untreated group received the vehicle (NMP and olive oil) only. For oral administration purposes, 20 ga × 38 mm plastic feeding tubes were used (Instech Laboratories, Inc). The gavage tip was inserted into the mouth directly over the tongue and into the pharynx. While observing the swallowing reflex, the tip was safely and smoothly slid into the esophagus. Once the administration was completed, the gavage tip was pulled straight out.
(§2) Since UMNs are genetically labeled with eGFP expression in the motor cortex of WT‐UeGFP, hSOD1^G93A‐UeGFP, and prpTDP‐43^A315T‐UeGFP mice, UMNs were identified based on the GFP expression. Quantitative analyses were performed on three matched rostrocaudal sections spanning the motor cortex. Three images per subject were taken to capture a 4× objective filed that encompass layer 5 of the motor cortex. An inverted epifluorescent Eclipse TE2000‐E microscope (Nikon) with the same exposure time and intensity was used. UMNs were counted only if their soma and apical dendrite were both visualized in the same 50‐µm thick section. Images were analyzed in ImageJ (NIH) using the Find maxima processing command to determine the local maxima within a predetermined region of interest that circumscribes the layer 5 of the motor cortex. A universal noise tolerance, which ignores the local maxima corresponding to background and autofluorescence, was applied to all images.

[2] = tested on: UMN apical dendrites of prpTDP‐43^A315T‐UeGFP mice; assay: UMN apical dendrites with vacuoles, prpTDP‐43^A315T‐UeGFP mice
Method: as §1
Mice were deeply anesthetized using ketamine (90 mg/kg) with xylazine (10 mg/kg), and transcardially perfused with 4% PFA in PBS. The brains were removed intact and postfixed (4% PFA, overnight) and stored in PBS with sodium azide (0.01%) at 4°C. Sections were cut in a coronal (50 µm) plane using a vibratome (Leica) and processed for immunocytochemical analyses.
The antibodies used are as follows: anti‐GFP (1:1000, Invitrogen; or 1:1000, Abcam) and anti‐misfolded SOD1 (B8H10, 1:250, Médimabs). Briefly, sections were treated with blocking solution (PBS, 0.05% BSA, 2% FBS, 1% Triton X‐100, and 0.1% saponin) for 30 min at room temperature and incubated with primary antibody diluted in blocking solution overnight at 4°C. Appropriate secondary fluorescent antibodies (1:500, AlexaFluor‐conjugated, Invitrogen) were added to the blocking solution at room temperature for 2 h in the dark.

[3] = tested on: UMNs in the motor cortex of WT‐UeGFP mice; assay: UMN quantification in motor cortex, WT‐UeGFP mice
Method: as §1, §2

WT‐UeGFP mice = assay: Rotarod test, WT‐UeGFP mice; set-up: Rotarod, Mean Diff. (vehicle minus NU-9) / Rotarod, mean difference G vehicle vs. G NU-9 (20) / Rotarod, mean difference G vehicle vs. G NU-9 (100): unit not given here; conditions: for Rotarod, group mean (Mean 1 / Mean 2 of 2way ANOVA multiple comparisons): WT-UeGFP (G); for Rotarod, group mean (Mean 1 / Mean 2) / Rotarod, Mean Diff. (vehicle minus NU-9): WT-UeGFP mice; for Rotarod, Average / Rotarod, mean difference G vehicle vs. G NU-9 (20) / Rotarod, mean difference G vehicle vs. G NU-9 (100): WT-UeGFP; for Rotarod, mean difference G vehicle vs. G NU-9 (20): vehicle minus NU-9 20 mg/kg/day; for Rotarod, mean difference G vehicle vs. G NU-9 (100): vehicle minus NU-9 100 mg/kg/day
Method: as §1
Behavior data were collected from hSOD1^G93A‐UeGFP and WT‐UeGFP mice (starting at P60 and every 7 days until P116) and from prpTDP‐43^A315T‐UeGFP mice (at P60, P90, and P120) with the following number of mice for each group: WT‐UeGFP vehicle (n = 10), hSOD1^G93A‐UeGFP vehicle (n = 6), WT‐UeGFP 20 mg/kg/day NU‐9 (n = 5), hSOD1^G93A‐UeGFP 20 mg/kg/day NU‐9 (n = 7), WT‐UeGFP 100 mg/kg/day NU‐9 (n = 11), hSOD1^G93A‐UeGFP 100 mg/kg/day NU‐9 (n = 9), prpTDP‐43^A315T‐UeGFP untreated (n ≥ 3), and prpTDP‐43^A315T‐UeGFP 100 mg/kg/day NU‐9 (n = 4) (Table S3).
Mice were placed on a rotating rod that accelerates linearly from 4 to 40 rpm (Rotarod, Ugo Basile), and the average time spent on the rotating rod for three consecutive trials was calculated for each mouse. Mice were allowed to run for a maximum of 5 min with a 5 min rest period between each run, and the latency to fall was recorded for three consecutive trials. The average of the three trials was taken as the data point for each mouse at the age tested, and the performance of different groups are reported as the mean ± SEM.

[4] = prpTDP43A315T-UeGFP untreated minus NU-9 100 mg/kg/day, Tukey's multiple comparisons test
[5] = prpTDP-43A315T-UeGFP mice, NU-9 100 mg/kg/day
[6] = prpTDP‐43^A315T‐UeGFP mice, 100 mg/kg/day oral gavage P60–P120
[7] = WT-UeGFP mice, NU-9 100 mg/kg/day
[8] = WT-UeGFP vehicle minus NU-9 100 mg/kg/day, Tukey's multiple comparisons test

C[C@H](Oc1cc(C(F)(F)F)cc(C(F)(F)F)c1)C1CC(=O)CC(=O)C1 [NU‐9]
Mean Diff., Fig. 7H, GT Untreated vs. GT NU-9 (100) [1, 4]: -22.58 | Mean, Fig. 7H (UMN quantification in motor cortex) [1, 5]: 59.17 | average number of UMNs in the motor cortex [1, 6]: 59 ± 3 UMNs | Mean Diff., Fig. 7E, GT Untreated vs. GT NU-9 (100) [2, 4]: 70.28 | Mean, Fig. 7E (UMN apical dendrites with vacuoles) [2, 5]: 10.93 | percentage of UMNs with vacuolated primary apical dendrites [2, 6]: 11% ± 1% | Mean, Fig. 5E (UMN quantification in motor cortex) [3, 7]: 65.5 | Mean, Fig. 7H (UMN quantification in motor cortex) [3, 7]: 65.5 | Mean Diff., Fig. 5E, G Vehicle vs. G NU-9 (100) [3, 8]: -6.183 | Mean Diff., Fig. 7H, G Vehicle vs. G NU-9 (100) [3, 8]: -6.183 | average number of UMNs per section in the motor cortex ([3]; WT‐UeGFP mice, 100 mg/kg/day oral gavage P60–P120): 66 ± 1 UMNs | Rotarod, group mean (Mean 1 / Mean 2 of 2way ANOVA multiple comparisons) (WT‐UeGFP mice; NU-9 20 mg/kg/day, P102): 295.1 | Rotarod, group mean (Mean 1 / Mean 2 of 2way ANOVA multiple comparisons) (WT‐UeGFP mice; NU-9 20 mg/kg/day, P109): 291 | Rotarod, group mean (Mean 1 / Mean 2 of 2way ANOVA multiple comparisons) (WT‐UeGFP mice; NU-9 20 mg/kg/day, P116): 298.9 | Rotarod, group mean (Mean 1 / Mean 2 of 2way ANOVA multiple comparisons) (WT‐UeGFP mice; NU-9 100 mg/kg/day, P102): 251.4 | Rotarod, group mean (Mean 1 / Mean 2 of 2way ANOVA multiple comparisons) (WT‐UeGFP mice; NU-9 100 mg/kg/day, P109): 241.3 | Rotarod, group mean (Mean 1 / Mean 2 of 2way ANOVA multiple comparisons) (WT‐UeGFP mice; NU-9 100 mg/kg/day, P116): 221.3 | Rotarod, group mean (Mean 1 / Mean 2) (WT‐UeGFP mice; NU-9 20 mg/kg/day, P60): 260.7 | Rotarod, group mean (Mean 1 / Mean 2) (WT‐UeGFP mice; NU-9 20 mg/kg/day, P67): 279.2 | Rotarod, group mean (Mean 1 / Mean 2) (WT‐UeGFP mice; NU-9 20 mg/kg/day, P74): 295.3 | Rotarod, group mean (Mean 1 / Mean 2) (WT‐UeGFP mice; NU-9 20 mg/kg/day, P81): 286.1 | Rotarod, group mean (Mean 1 / Mean 2) (WT‐UeGFP mice; NU-9 20 mg/kg/day, P88): 285.5 | Rotarod, group mean (Mean 1 / Mean 2) (WT‐UeGFP mice; NU-9 20 mg/kg/day, P95): 279.3 | Rotarod, group mean (Mean 1 / Mean 2) (WT‐UeGFP mice; NU-9 100 mg/kg/day, P60): 250.1 | Rotarod, group mean (Mean 1 / Mean 2) (WT‐UeGFP mice; NU-9 100 mg/kg/day, P67): 261.4 | Rotarod, group mean (Mean 1 / Mean 2) (WT‐UeGFP mice; NU-9 100 mg/kg/day, P74): 261.2 | Rotarod, group mean (Mean 1 / Mean 2) (WT‐UeGFP mice; NU-9 100 mg/kg/day, P81): 258.5 | Rotarod, group mean (Mean 1 / Mean 2) (WT‐UeGFP mice; NU-9 100 mg/kg/day, P88): 256.5 | Rotarod, group mean (Mean 1 / Mean 2) (WT‐UeGFP mice; NU-9 100 mg/kg/day, P95): 262.2 | Rotarod, Mean Diff. (vehicle minus NU-9) (WT‐UeGFP mice; vehicle vs. NU-9 20 mg/kg/day, P60): 10.27 | Rotarod, Mean Diff. (vehicle minus NU-9) (WT‐UeGFP mice; vehicle vs. NU-9 20 mg/kg/day, P67): -0.9667 | Rotarod, Mean Diff. (vehicle minus NU-9) (WT‐UeGFP mice; vehicle vs. NU-9 20 mg/kg/day, P74): -13.73 | Rotarod, Mean Diff. (vehicle minus NU-9) (WT‐UeGFP mice; vehicle vs. NU-9 20 mg/kg/day, P81): -2.267 | Rotarod, Mean Diff. (vehicle minus NU-9) (WT‐UeGFP mice; vehicle vs. NU-9 20 mg/kg/day, P88): -1.533 | Rotarod, Mean Diff. (vehicle minus NU-9) (WT‐UeGFP mice; vehicle vs. NU-9 20 mg/kg/day, P95): 5.033 | Rotarod, Mean Diff. (vehicle minus NU-9) (WT‐UeGFP mice; vehicle vs. NU-9 20 mg/kg/day, P102): -24.77 | Rotarod, Mean Diff. (vehicle minus NU-9) (WT‐UeGFP mice; vehicle vs. NU-9 20 mg/kg/day, P109): -17.03 | Rotarod, Mean Diff. (vehicle minus NU-9) (WT‐UeGFP mice; vehicle vs. NU-9 20 mg/kg/day, P116): -40.09 | Rotarod, Mean Diff. (vehicle minus NU-9) (WT‐UeGFP mice; vehicle vs. NU-9 100 mg/kg/day, P60): 20.91 | Rotarod, Mean Diff. (vehicle minus NU-9) (WT‐UeGFP mice; vehicle vs. NU-9 100 mg/kg/day, P67): 16.81 | Rotarod, Mean Diff. (vehicle minus NU-9) (WT‐UeGFP mice; vehicle vs. NU-9 100 mg/kg/day, P74): 20.39 | Rotarod, Mean Diff. (vehicle minus NU-9) (WT‐UeGFP mice; vehicle vs. NU-9 100 mg/kg/day, P81): 25.41 | Rotarod, Mean Diff. (vehicle minus NU-9) (WT‐UeGFP mice; vehicle vs. NU-9 100 mg/kg/day, P88): 27.48 | Rotarod, Mean Diff. (vehicle minus NU-9) (WT‐UeGFP mice; vehicle vs. NU-9 100 mg/kg/day, P95): 22.09 | Rotarod, Mean Diff. (vehicle minus NU-9) (WT‐UeGFP mice; vehicle vs. NU-9 100 mg/kg/day, P102): 18.94 | Rotarod, Mean Diff. (vehicle minus NU-9) (WT‐UeGFP mice; vehicle vs. NU-9 100 mg/kg/day, P109): 32.69 | Rotarod, Mean Diff. (vehicle minus NU-9) (WT‐UeGFP mice; vehicle vs. NU-9 100 mg/kg/day, P116): 37.47 | Rotarod, Average (WT‐UeGFP mice; NU-9 20 mg/kg/day po, P60): 260.733 s | Rotarod, Average (WT‐UeGFP mice; NU-9 20 mg/kg/day po, P67): 279.2 s | Rotarod, Average (WT‐UeGFP mice; NU-9 20 mg/kg/day po, P74): 295.333 s | Rotarod, Average (WT‐UeGFP mice; NU-9 20 mg/kg/day po, P81): 286.133 s | Rotarod, Average (WT‐UeGFP mice; NU-9 20 mg/kg/day po, P88): 285.467 s | Rotarod, Average (WT‐UeGFP mice; NU-9 20 mg/kg/day po, P95): 279.267 s | Rotarod, Average (WT‐UeGFP mice; NU-9 20 mg/kg/day po, P102): 295.133 s | Rotarod, Average (WT‐UeGFP mice; NU-9 20 mg/kg/day po, P109): 291 s | Rotarod, Average (WT‐UeGFP mice; NU-9 20 mg/kg/day po, P116): 298.867 s | Rotarod, Average (WT‐UeGFP mice; NU-9 100 mg/kg/day po, P60): 250.091 s | Rotarod, Average (WT‐UeGFP mice; NU-9 100 mg/kg/day po, P67): 261.424 s | Rotarod, Average (WT‐UeGFP mice; NU-9 100 mg/kg/day po, P74): 261.212 s | Rotarod, Average (WT‐UeGFP mice; NU-9 100 mg/kg/day po, P81): 258.455 s | Rotarod, Average (WT‐UeGFP mice; NU-9 100 mg/kg/day po, P88): 256.455 s | Rotarod, Average (WT‐UeGFP mice; NU-9 100 mg/kg/day po, P95): 262.212 s | Rotarod, Average (WT‐UeGFP mice; NU-9 100 mg/kg/day po, P102): 251.424 s | Rotarod, Average (WT‐UeGFP mice; NU-9 100 mg/kg/day po, P109): 241.273 s | Rotarod, Average (WT‐UeGFP mice; NU-9 100 mg/kg/day po, P116): 221.303 s | Rotarod, mean difference G vehicle vs. G NU-9 (20) (WT‐UeGFP mice; P102): -24.77 | Rotarod, mean difference G vehicle vs. G NU-9 (20) (WT‐UeGFP mice; P109): -17.03 | Rotarod, mean difference G vehicle vs. G NU-9 (20) (WT‐UeGFP mice; P116): -40.09 | Rotarod, mean difference G vehicle vs. G NU-9 (100) (WT‐UeGFP mice; P102): 18.94 | Rotarod, mean difference G vehicle vs. G NU-9 (100) (WT‐UeGFP mice; P109): 32.69 | Rotarod, mean difference G vehicle vs. G NU-9 (100) (WT‐UeGFP mice; P116): 37.47

From paper PMC7898037, “Improving mitochondria and ER stability helps eliminate upper motor neuron degeneration that occurs due to mSOD1 toxicity and TDP‐43 pathology” (Clinical and Translational Medicine, 2021)
